Results: US9073880B2, “2-(2-phenylethenyl) 1,3-benzodiazepine derivatives useful for the treatment of cancer” (Yissum Research Development Company of the Hebrew …, priority 2010, dated 2015)

System: human melanoma A375 cells
Test: Cell proliferation, A375 (Example 4)
Assay type: cell-based
Settings: A-375, compound in 2-hydroxypropyl-β-cyclodextrin
Method: Human ovary cancer A2780 cells lines were seeded at a density of 5000 cells/well, human melanoma A375 cells were plated at a density of 2,500 cells/well, human colon carcinoma HCT15 cells were plated at a density of 3,000 cells/well, human prostate carcinoma PC3 cells were plated at a density of 1,500 cells/well, human breast carcinoma MCF7 cells were plated at a density of 5,000 cells/well, human breast carcinoma MDA MB 468 cells were plated at a density of 6,000 cells/well, human myeloma U266, RPMI8226 and CAG cells were plated at a density of 10,000 cells/well. All cells were plated in 96-well plates in 90 μl growth medium containing 10% FCS, 100 units/ml penicillin and 100 μg/ml streptomycin. Compound 3 was added a day later in […] of 1% DMSO in DDW to obtain final concentrations of 0, 0.1, 0.3, 1, 3, and 10 μM. The final concentration of DMSO (0.1% DMSO) was kept constant in all samples. […] The optical density values were read at 630 nm in ELISA plate reader. Non-adhered cells were exposed to WST-1 reagent for 5 hours following 72 hours treatment with the inhibitors, and optical density values were read at 630 nm in ELISA plate reader. The data was analyzed in Microsoft Excel, using the vehicle control as 100% proliferation. […]

| SMILES | IC50 [nM] |
| --- | --- |
| O=c1c(O)cc2cnc(/C=C/c3cc(O)c(O)c(Br)c3)sc-2c1O [Compound 3] | 500 |
| O=c1c(O)cc2cnc(/C=C/c3ccc(O)c(O)c3Br)sc-2c1O [Compound 5] | 400 |
